Results on four compounds are retold here after US20140171510A1, “HO[…] AND/OR CONJUGATES OF AMPHETAMINE AND OTHER […] PROCESSES FOR MAKING AND USING THE SAME” (priority 2011, published 2014).

A short description of data set [1]: Average results of oral studies in rats (Table 3). The settings on record: for % Tmax: average of oral studies in rats, relative to Lys-Amp. The class given is in vivo.
A short description of data set [2]: Intravenous study in rats, plasma d-amphetamine by ELISA (Example 8). The settings on record: for % Tmax: relative to d-amp; for Tmax: d-amphetamine in plasma, […] equivalent.
Data set [3] is described as follows: Single-dose crossover oral PK study of hArg-Amp-2HCl and Lys-Amp in humans (Example 10). As to conditions: for AUC0-24 h of d-amphetamine: fasted, Vyvanse 30 mg (d-amphetamine equivalent dosages); for plasma concentrations of intact prodrug: 25 mg hArg-Amp-2HCl or same molar dose, lower limit of quantitation 1.00 ng/mL.
Data set [4] can be described thus: Oral gavage PK study of hArg-Amp vs Lys-Amp in rats, plasma d-amphetamine by ELISA (Example 6). The settings on record: relative to Lys-Amp.
The nature of data set [5]: Oral PK of hArg-Amp-2HCl and Lys-Amp in dogs (Example 9).
A short description of data set [6]: Intranasal study in rats, plasma d-amphetamine by ELISA (Example 7). The settings on record: for % Tmax: relative to d-amp.
A short description of data set [7]: Oral PK of hArg-Amp-2HCl and Lys-Amp in rats (Example 9). The settings on record: for AUC0-24 h of d-amphetamine: equimolar doses (hArg-Amp-2HCl […], Lys-Amp 5.05 mg/kg).
The nature of data set [8]: pH of the prodrug in deionized water at various concentrations. In kind it is physicochemical. The text has this: In a preferred embodiment, the homoarginine amphetamine prodrug comprises a dihydrochloride salt of homoarginine amphetamine. The pH of this prodrug in deionized water at various concentrations is as follows: […]
A short description of data set [9]: Parenteral (intranasal, intravenous) administration in rats, release of amphetamine (Example 1). As to conditions: parental routes (intranasal, intravenous).
The mark [10] stands for this setting: oral solution, hArg-Amp-2HCl 25 mg.
Where [11] appears, read: oral solution, hArg-Amp-2HCl 25 mg, Vyvanse 30 mg.
The mark [12] stands for this setting: equimolar doses (1.5 and 1.8 mg/kg).
[13] abbreviates: oral solution, equimolar doses (4.20 and 5.05 mg/kg).

For the compound “l-lysine-d-amphetamine [Lys-Amp, reference compound]”, the “% Tmax” value in data set [1] was 100%; in data set [2], 100%; in data set [4], 100%; in data set [6], 3600%. The “AUC0-24 h of d-amphetamine” value in data set [3] (setting [10]) amounted to 421.9 ng·h/mL; in [5] (equimolar doses (hArg-Amp-2HCl […], Lys-Amp 1.8 mg/kg)), 775.0 ng·h/mL; in data set [7] (oral solution), 596.4 ng·h/mL. Moreover, the “AUC0-24 h of intact prodrug” value amounted to 19.4 ng·h/mL in [3] (setting [11]), 285.8 ng·h/mL in data set [5] (setting [12]) and 74.9 ng·h/mL in [7] (setting [13]). The Cmax of d-amphetamine is 30.0 ng/mL in data set [3] (setting [11]), 95.4 ng/mL in data set [5] (setting [12]) and 71.5 ng/mL in [7] (setting [13]). For the same compound, the figures for the “Cmax of intact prodrug” value in data set [3] (setting [11]), in data set [5] (setting [12]) and in data set [7] (setting [13]) were 18.1 ng/mL, 305.5 ng/mL and 90.2 ng/mL, respectively. Further, in data set [3] (setting [11]), the “Tmax of intact prodrug” value was 36.6 min.
For the compound `C[C@@H](Cc1ccccc1)NC(=O)[C@@H](N)CCCCN=C(N)N.Cl.Cl` [hArg-Amp-2HCl, l-homoarginine-d-amphetamine dihydrochloride], the “AUC0-24 h of d-amphetamine” value in data set [3] (setting [10]) came to 282.7 ng·h/mL; in data set [7] (oral solution) it was 447.2 ng·h/mL. Besides, the “Tmax of d-amphetamine, hArg-Amp-2HCl/Lys-Amp” value in data set [3] (oral) amounted to 110.5%; in data set [7] (oral), 150.0%. The entries for the “Tmax of intact prodrug, hArg-Amp-2HCl/Lys-Amp” value in [3] (oral) and in [7] (oral) were 0% and 100.0%^, respectively. Moreover, the Cmax of d-amphetamine in [3] (setting [11]) amounted to 20.7 ng/mL; in data set [7] (setting [13]), 43.2 ng/mL. For the same compound, the “Tmax of intact prodrug” value worked out at 0 min in data set [3] (setting [11]) and 15 min in data set [7] (setting [13]). For the same compound, the “AUC0-24 h of intact prodrug” value in data set [7] (setting [13]) stood at 1.8 ng·h/mL. For the same compound, the “Cmax of intact prodrug” value in data set [7] (setting [13]) is 3.1 ng/mL. Further, the pH in [8] (0.1 mg/mL (0.3 mM) in deionized water) was found to be 6.15 ± 0.1; in [8] (1.0 mg/mL ([…]) in deionized water) it was 5.40 ± 0.1; in [8] (10 mg/mL (26.4 mM) in deionized water), 4.35 ± 0.1; in data set [8] (100 mg/mL (264.3 mM) in deionized water), 3.30 ± 0.1.
Consider `C[C@H](N)Cc1ccccc1` [d-amp, d-amphetamine], for which the Tmax worked out at 5 m in data set [2] and 5 m in data set [6] (d-amphetamine in plasma, […] equivalent, given in minutes). Further, the “% Tmax” value in data set [2] and in [6] was 100% each time.
l-homoarginine-d-amphetamine [hArg-Amp]: the release of amphetamine in data set [9] is given as less than 25%. The Tmax is 120 to 240 min in [1] (average of oral studies in rats (n = 30 per compound)) and 5 m in data set [2]. The “% Tmax” value in data set [1] is 200-400%; in data set [2], 100%; in data set [4], 133%; in data set [6], 600%. Also, the Tmax of d-amphetamine result in data set [3] (setting [11]) is “approximately three hours”. Besides, the “plasma concentrations of intact prodrug” value in data set [3] (oral, listed as homoarginine amphetamine prodrug) was no more than 1.00 ng/mL; in data set [3] (oral, listed as homoarginine-amphetamine prodrug), “below the detectable limit”. For the same compound, the “period over which amphetamine is eliminated after the maximum plasma concentration” value in data set [3] (single oral dose of 25 mg) is reported as “about 45 hours”.
